Measured values reported in patent US20220228164A1, “ENGINEERED ANTIGEN PRESENTING CELLS” (Neogene Therapeutics B.V., priority 2021, published 2022).

What was measured:
Assay type in all cases: cell-based, human
[1] = tested on: Jurkat T cells expressing the class II restricted MAGE-A3 TCR; assay: Peptide electroporation of BCL-6/BCL-xL-CD40L immortalized B cells, co-culture with TCR Jurkat T cells, CD69 (Example 12); conditions: 25mer electroporated; MHC class II restricted TCR
[2] = tested on: TCR-KO Jurkat T cells expressing the GCN1L1 TCR; assay: Peptide electroporation of BCL-6/BCL-xL-CD40L immortalized B cells, co-culture with TCR Jurkat T cells, CD69 (Examples 11, 12); conditions: for presentation of the GCN1L1 antigen after peptide electroporation (CD69+ of live cells): electroporated into BCL-6/BCL-xL-CD40L immortalized B cells
Text: Immortalized primary human B cells that are electroporated with a polypeptide of a uniform length (25mer) will be efficiently processed and present T cell epitopes encoded within the polypeptide via the MHC class I pathway and activate T cells expressing an MHC class I restricted TCR specific for the T cell epitope encoded within the polypeptide. BCL-6/BCL-xL-CD40L immortalized B cells from a healthy donor were electroporated with short (10mer) (ALLETPSLLL, SEQ ID NO: 5) or long (25mer) ([…], SEQ ID NO: 6) peptides encoding the GCN1L1 mutated peptide or CMV mutated long peptide ([…], SEQ ID NO: 7), using a method known to the skilled artisan. Briefly, for each sample, 0.2e6 B cells were harvested and washed with PBS. After removal of all PBS, the dry pellet was resuspended in electroporation buffer (SF-buffer, Lonza) at a concentration of 25e6 cells per mL. Of this mixture, 20 μL per sample was added to a 96 well tissue-culture-plate that contains the appropriate amount of peptide resulting in the indicated peptide concentration. Cells were transferred to a 16-well electroporation strip (Lonza) and subsequently electroporated using the DN100 program (Lonza Amaxa). Post-electroporation, cells were rested for 10 minutes at 37° C. and transferred to a 96 well round bottom tissue-culture plate in a final volume of 200 μL of Complete B cell Medium (RPMI1640 medium supplemented with 10% (v/v) Fetal Calf Serum (FCS), 1% (v/v) Penicillin/Streptomycin (P/S), 1% (v/v) Sodium Pyruvate, 1% (v/v) Non-essential amino acids, 1% (v/v) Glutamax, 50 nM 2-Mercaptoethanol) and incubated for 0, 2, 4, 5, 6, 10 or 24 hrs at 37° C. The resting period post peptide electroporation allows for exogenous loading of the peptide onto the target cells in a parallel experimental condition. […] After 20 hours, cells were stained with antibodies directed against CD8 and CD69 and specific recognition by TCR td T cells was measured by CD69 upregulation on a flow cytometer. […]

[3] = tested on: TCR-KO Jurkat T cells expressing the CMV1 TCR; assay: as above; conditions: 25mer electroporated; MHC class I restricted TCR
Text: Immortalized primary human B cells that are electroporated with a polypeptide of a uniform length (25mer) will be efficiently processed and present T cell epitopes encoded within the polypeptide via the MHC class I pathway and activate T cells expressing an MHC class I restricted TCR specific for the T cell epitope encoded within the polypeptide. BCL-6/BCL-xL-CD40L immortalized B cells from a healthy donor were electroporated with short (10mer) (ALLETPSLLL, SEQ ID NO: 5) or long (25mer) ([…], SEQ ID NO: 6) peptides encoding the GCN1L1 mutated peptide or CMV mutated long peptide ([…], SEQ ID NO: 7), using a method known to the skilled artisan. Briefly, for each sample, 0.2e6 B cells were harvested and washed with PBS. After removal of all PBS, the dry pellet was resuspended in electroporation buffer (SF-buffer, Lonza) at a concentration of 25e6 cells per mL. […] After 20 hours, cells were stained with antibodies directed against CD8 and CD69 and specific recognition by TCR td T cells was measured by CD69 upregulation on a flow cytometer.
A CMV epitope was electroporated or loaded onto BCL-6/BCL-xL/CD40L immortalized B cells. T cell activation was measured for various concentrations of peptide after 6, 10 or 24 hours of post-electroporation resting (FIG. 17A) or were loaded with peptide (FIG. 17B) for similar time-points. […]

## ILGDPKKLLTQHFVQENYLEYRQVP [MAGEA3]
[1]
  post-electroporation rest with which the peptide elicits a response (% CD69): ≥ 2 h

## FSWNVKAALLETPSLLLAKVGIALK [long GCN1L1 peptide, long (25mer) peptide encoding the GCN1L1 mutated peptide]
[2]; 25mer electroporated, MHC class I restricted TCR
  post-electroporation rest with which the peptide elicits a response (% CD69): ≥ 2 h
[2]
  presentation of the GCN1L1 antigen after peptide electroporation (CD69+ of live cells): efficient presentation

## WQAGILARNLVPMVATVQGQNLKYQ [long CMV1 peptide, CMV long (25mer) peptide]
[3]
  post-electroporation rest with which the peptide elicits a response (% CD69): ≥ 2 h

## ALLETPSLLL [short GCN1L1 peptide, short (10mer) peptide encoding the GCN1L1 mutated peptide]
[2]
  presentation of the GCN1L1 antigen after peptide electroporation (CD69+ of live cells): efficient presentation
